Reference: patent publication US12508247B2, “Controlled release injectable ondansetron formulations” (SHILPA MEDICARE LIMITED, priority 2019, dated 2025)
Like-named read-outs stand apart in the source and are kept apart here.

Test: Fasting single dose PK study in dogs: plasma ondansetron after intravenous bolus of marketed ondansetron injection (reference)
Assay type: in vivo
Conditions: fasted male Beagle dogs; for C0: 2 mg/mL solution; for Vd: read-out: Vss
Protocol: Male Beagle dogs were fasted are divided into six groups as G1, G2, G3, G4, G5 and G6 each consisting of four dogs.
Blood samples were collected from each IM route dogs at 0 (pre-dose), 0.5, 1, 2, 4, 8, 16, 24, 36, 48, 72, 96, 120, 144, 168 and 240 h post-dose; for IV route dogs, blood samples were collected at 0 (pre-dose), 0.167, 0.33, 0.5, 0.75, 1, 2, 4, 8, 12 and 24 h post-dose and analysed for ondansetron in plasma and calculated using the noncompartmental analysis tool of the validated Phoenix WinNonlin software (Version 8.0). The summary of plasma pharmacokinetics parameters of ondansetron for G1 and G2 animals is summarized in Table—2 (FIGS. 1, 2) and G3, G4, G5 and G6 (FIGS. 3, 4, 5 and 6) animals is summarized in Table— 3.

Cc1nccn1CC1CCc2c(c3ccccc3n2C)C1=O (centres unmarked) [Ondansetron]
C0 (G1, IV bolus 4 mg/dog): 110 ng/mL | AUC(0-inf) (G1, IV bolus 4 mg/dog): 107 ng·h/mL | AUC(0-t) (G1, IV bolus 4 mg/dog): 106 ng·h/mL | MRT last (G1, IV bolus 4 mg/dog): 1.12 h | clearance (G1, IV bolus 4 mg/dog): 644 mL/min | half-life (G1, IV bolus 4 mg/dog): 0.878 h | Vd (G1, IV bolus 4 mg/dog): 40.3 L | C0 (G2, IV bolus 24 mg/dog): 828 ng/mL | AUC(0-inf) (G2, IV bolus 24 mg/dog): 716 ng·h/mL | AUC(0-t) (G2, IV bolus 24 mg/dog): 715 ng·h/mL | MRT last (G2, IV bolus 24 mg/dog): 1.17 h | clearance (G2, IV bolus 24 mg/dog): 563 mL/min | half-life (G2, IV bolus 24 mg/dog): 1.28 h | Vd (G2, IV bolus 24 mg/dog): 36.3 L
